According to patent US20130280204A1 (priority 2007, published 2013):
Read-outs that look alike come from different tables or passages of the source.

Experiments:
TKY virus = format: cell-based, influenza A virus H4N2; conditions: t=15 min
[1] = molecular target: viral NA of TKY Drug-free p23 (DF23) (Influenza A virus (A/turkey/Minnesota/833/1980(H4N2)), UniProt Q20NP0); format: biochemical; conditions: read-out: Ki (nM, based on ZA) Drug-free p23
[2] = tested on: human influenza A/Wuhan/359/95 (Wuhan); assay: microbe, parasite or virus in culture; format: cell-based, influenza A virus H3N2
[3] = tested on: avian strain A/Turkey/MN/80 (TKY); format: cell-based, influenza A virus H4N2
TKY Wild-type = format: cell-based, influenza A virus H4N2; conditions: read-out: IC50 (nM, based on ZA) Wild-type
[4] = tested on: A/Nanchang/933/95 (Nanchang) virus; design: species or system ferrets; conditions: in vivo
[5] = tested on: avian influenza A/turkey/MN/833/80 (TKY); assay: microbe, parasite or virus in culture; format: cell-based, influenza A virus H4N2
active site of NA = conditions: read-out: affinity constant for the active site of NA; cited from earlier work
[6] = molecular target: viral NA of TKY Wild-type (Influenza A virus (A/turkey/Minnesota/833/1980(H4N2)), UniProt Q20NP0); format: biochemical; conditions: read-out: Ki (nM, based on ZA) Wild-type
Sequence of viral NA of TKY Wild-type (Influenza A virus (A/turkey/Minnesota/833/1980(H4N2)), UniProt Q20NP0) (Q20NP0 whole entry, looked up): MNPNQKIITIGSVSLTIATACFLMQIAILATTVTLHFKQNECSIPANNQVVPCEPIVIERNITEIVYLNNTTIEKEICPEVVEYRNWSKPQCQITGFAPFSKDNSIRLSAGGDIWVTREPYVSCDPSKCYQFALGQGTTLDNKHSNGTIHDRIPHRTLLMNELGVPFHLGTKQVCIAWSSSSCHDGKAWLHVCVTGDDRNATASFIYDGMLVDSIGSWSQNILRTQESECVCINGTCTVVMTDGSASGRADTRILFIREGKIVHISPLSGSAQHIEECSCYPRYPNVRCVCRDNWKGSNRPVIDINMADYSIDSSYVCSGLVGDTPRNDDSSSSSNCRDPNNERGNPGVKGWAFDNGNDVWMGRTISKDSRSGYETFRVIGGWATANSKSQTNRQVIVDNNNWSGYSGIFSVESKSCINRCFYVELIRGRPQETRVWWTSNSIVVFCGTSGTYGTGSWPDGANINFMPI

TKY Drug-free p23 (DF23) = format: cell-based, influenza A virus H4N2; conditions: read-out: IC50 (nM, based on ZA) Drug-free p23
WSN strain = tested on: WSN strain; design: species or system Balb/C mice; conditions: mouse, in vivo
influenza A/WSN/33 (WSN) = assay: microbe, parasite or virus in culture; format: cell-based, influenza A virus H1N1; conditions: read-out: IC50 (nM 1) WSN

Sequence of viral NA of TKY Drug-free p23 (DF23) (Influenza A virus (A/turkey/Minnesota/833/1980(H4N2)), UniProt Q20NP0) (Q20NP0 whole entry, looked up): as above

NC12CC3CC(CC(C3)C1)C2 [amantadine]
viral particles inside the cells (TKY virus): accumulation of viral particles inside the cells

CC(=O)N[C@H]1[C@H]([C@H](O)[C@H](O)CO)OC(C(=O)O)=C[C@@H]1N=C(N)N [compound 1, zanamivir]
Ki [1]: 8.8 ± 5.6 nM
IC50 ([2]; H3N2, read-out: IC50 (nM Sugar) Wuhan (H3N2)): 20000 nM
change of potency (IC50), early and late vs late only [3]: remained the same
IC50 (TKY Wild-type): 56 ± 8 nM
reduction in nasal wash viral titer compared to PBS controls, day 4 p.i. [4]: did not
reduction in nasal wash viral titer compared to PBS controls, day 6 p.i. [4]: did not
reduction in nasal wash viral titer compared to PBS-treated group, day 2 p.i. [4]: 38 fold
IC50 ([5]; H4N2, read-out: IC50 (nM Sugar) Turkey/WT (H4N2)): 20000 nM
Kd (active site of NA): 0.0001 to 0.001 µM
Ki [6]: 5.3 ± 0.4 nM
IC50 (TKY Drug-free p23 (DF23)): 38 ± 31 nM
drop of viral titers in lung homogenates vs untreated mice (WSN strain): 20 fold

CC(=O)NC1C(NC(=N)N)C=C(C(=O)O)OC1C(OC(=O)NCCOCCN)C(O)CO (stereo not shown) [compound 3, 3-Acetamido-2-(1-(((2-(2-aminoethoxy)ethyl)carbamoyl)oxy)-2,3-dihydroxypropyl)-4-guanidino-3,4-dihydro-2H-pyran-6-carboxylic acid]
IC50 ([2]; read-out: IC50 (nM 1) Wuhan): 1.3e+06 nM
IC50 (influenza A/WSN/33 (WSN)): 57000 nM
IC50 ([5]; read-out: IC50 (nM 1) TKY): 1.4e+06 nM

CC(=O)NC1C(NC(=N)N)C=C(C(=O)O)OC1C(OC(=O)Nc1ccc(CN)cc1)C(O)CO (stereo not shown) [compound 4, 3-Acetamido-2-(1-(((4-(aminomethyl)phenyl)carbamoyl)oxy)-2,3-dihydroxypropyl)-4-guanidino-3,4-dihydro-2H-pyran-6-carboxylic acid]
IC50 ([2]; read-out: IC50 (nM 1) Wuhan): 840000 nM
IC50 (influenza A/WSN/33 (WSN)): 76000 nM
IC50 ([5]; read-out: IC50 (nM 1) TKY): 2.3e+06 nM
